Measured values from US9233106B2, “Inhibition of beta-amyloid peptide aggregation” (CORNELL RESEARCH FOUNDATION, INC., priority 2006, dated 2016).
“Also recorded” adds a separate entry of the source.

Columns and labels:
[1] = system: cardiac myocytes; settings: cited from earlier work
[2] = system: cardiovascular functions; settings: anesthetized rats; cited from earlier work
[3] = system: cardiovascular functions; settings: squirrel monkeys; cited from earlier work
[4] = conscious rats; cited from earlier work
[5] = molecular target: T1, Aβ(1-40) peptide (Homo sapiens, UniProt P05067); assay: Thioflavin T fluorescence assay of Aβ(1-40) peptide aggregation; settings: for effect on Aβ(1-40) peptide aggregation: different concentrations of ligand
T1 sequence (P05067 672-711 limits assumed): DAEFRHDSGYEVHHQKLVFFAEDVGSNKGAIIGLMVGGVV

[6] = molecular target: T1, Aβ(1-40) peptide; assay: Electrophoretic mobility shift (gel-shift) binding assay with [3H]-cocaine; settings: 7-μM [3H]-cocaine, 125-μM Aβ(1-40), pH 7.4; preliminary results
Source text: The gel was cast in a vertical electrophoresis system of dimensions 7×8×0.15 cm and run at 100 V for 2 hr at room temperature. Lane I contains 7-μM [^3H]-cocaine only and Lane II contains 7-μM [^3H]-cocaine and 125-μM Aβ(1-40) peptide. The gel was then phosphor imaged; the contrast of the image was enhanced using ImageJ 1.34, in the process of which the contrast of the band streaks compared to background was lost. The square boxes correspond to the free [^3H]-cocaine trapped in the well; the circle corresponds to the [^3H]-cocaine bound to Aβ(1-40). […] The position of the peptide corresponded to the [^3H]-cocaine bound to Aβ(1-40) (circle) in the phosphorimage in FIG. 3A.
On the other hand, the theoretical isolectric point of the Aβ(1-40) peptide is 5.37 (Wiltfang et al., “Highly Conserved and Disease-Specific Patterns of Carboxyterminally Truncated Aβ Peptides 1-37/38/39 in Addition to 1-40/42 in Alzheimer's Disease and in Patients with Chronic Neuroinflammation,” J. Neurochem. 81:481-496 (2002), which is hereby incorporated by reference in its entirety). […] The imaging plate is then scanned by using a Molecular Dynamics Storm 860 PhosphorImager, and band intensities are quantified by using the IMAGEQUANT software from Molecular Dynamics. […]

[7] = molecular target: nicotinic acetylcholine receptor (Mus musculus, UniProt P02716+P04756+P04760+P09690); settings: cited from earlier work
nicotinic acetylcholine receptor, sequence (P04756 21-457): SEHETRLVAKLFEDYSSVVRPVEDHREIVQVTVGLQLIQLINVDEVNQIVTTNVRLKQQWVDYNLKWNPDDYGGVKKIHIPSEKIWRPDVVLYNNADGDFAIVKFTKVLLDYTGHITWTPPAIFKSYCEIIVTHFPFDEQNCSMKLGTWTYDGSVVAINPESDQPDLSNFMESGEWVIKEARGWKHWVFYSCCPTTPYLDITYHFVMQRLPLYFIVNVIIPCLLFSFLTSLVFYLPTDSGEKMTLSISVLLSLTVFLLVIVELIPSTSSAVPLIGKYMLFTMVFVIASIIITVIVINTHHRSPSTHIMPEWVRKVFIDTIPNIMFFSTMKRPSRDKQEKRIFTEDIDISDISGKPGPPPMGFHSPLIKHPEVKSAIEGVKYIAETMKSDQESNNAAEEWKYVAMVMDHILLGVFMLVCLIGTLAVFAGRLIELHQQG
nicotinic acetylcholine receptor, sequence (P09690 24-501): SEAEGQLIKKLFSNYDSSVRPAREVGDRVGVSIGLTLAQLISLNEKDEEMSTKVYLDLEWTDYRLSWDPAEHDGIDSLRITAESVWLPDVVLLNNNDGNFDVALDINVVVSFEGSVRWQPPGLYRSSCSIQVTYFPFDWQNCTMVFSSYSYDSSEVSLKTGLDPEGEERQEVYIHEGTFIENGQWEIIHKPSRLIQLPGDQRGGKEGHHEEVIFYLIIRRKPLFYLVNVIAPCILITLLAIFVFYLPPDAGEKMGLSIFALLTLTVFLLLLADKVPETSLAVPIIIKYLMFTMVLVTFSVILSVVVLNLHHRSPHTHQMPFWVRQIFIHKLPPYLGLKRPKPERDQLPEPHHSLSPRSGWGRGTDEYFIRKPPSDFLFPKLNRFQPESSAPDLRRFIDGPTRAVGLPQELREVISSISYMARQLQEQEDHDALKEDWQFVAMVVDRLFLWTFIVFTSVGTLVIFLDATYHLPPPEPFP
nicotinic acetylcholine receptor, sequence (P04760 23-519): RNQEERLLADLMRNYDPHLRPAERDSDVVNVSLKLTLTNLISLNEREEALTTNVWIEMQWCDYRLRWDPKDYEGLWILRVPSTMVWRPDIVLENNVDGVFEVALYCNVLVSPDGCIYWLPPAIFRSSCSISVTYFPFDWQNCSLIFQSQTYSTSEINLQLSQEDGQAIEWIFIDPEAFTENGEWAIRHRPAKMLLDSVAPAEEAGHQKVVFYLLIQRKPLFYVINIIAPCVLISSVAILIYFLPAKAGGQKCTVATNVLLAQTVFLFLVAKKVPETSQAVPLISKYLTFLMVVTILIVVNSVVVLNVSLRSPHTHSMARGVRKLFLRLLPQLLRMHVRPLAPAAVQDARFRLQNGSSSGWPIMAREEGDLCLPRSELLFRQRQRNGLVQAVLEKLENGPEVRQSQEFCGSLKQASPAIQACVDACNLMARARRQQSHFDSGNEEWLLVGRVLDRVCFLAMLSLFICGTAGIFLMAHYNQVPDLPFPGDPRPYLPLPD
nicotinic acetylcholine receptor, sequence (P02716 25-520): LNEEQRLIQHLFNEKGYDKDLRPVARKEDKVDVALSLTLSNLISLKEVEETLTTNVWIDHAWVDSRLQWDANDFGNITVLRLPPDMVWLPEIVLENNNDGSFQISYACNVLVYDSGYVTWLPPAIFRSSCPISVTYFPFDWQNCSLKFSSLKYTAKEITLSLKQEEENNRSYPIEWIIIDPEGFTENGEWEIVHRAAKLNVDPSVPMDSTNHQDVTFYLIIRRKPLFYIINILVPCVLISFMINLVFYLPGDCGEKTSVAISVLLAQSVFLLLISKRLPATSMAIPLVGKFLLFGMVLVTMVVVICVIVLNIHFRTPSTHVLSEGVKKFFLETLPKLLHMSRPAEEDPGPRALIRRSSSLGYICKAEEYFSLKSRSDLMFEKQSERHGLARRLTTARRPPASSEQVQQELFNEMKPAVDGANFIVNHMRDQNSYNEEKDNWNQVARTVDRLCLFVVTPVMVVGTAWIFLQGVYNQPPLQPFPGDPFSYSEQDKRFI

[8] = molecular target: T2, muscle type nicotinic acetylcholine receptor expressed in BC3H1 cells (Mus musculus, UniProt P02716+P04756+P04760+P09690); assay: Whole-cell current recording, cell-flow technique, carbamoylcholine-induced currents; type: cell-based; settings: 100-μM carbamoylcholine, listed as B55
T2 construct: nicotinic acetylcholine receptors expressed on the surface of BC3H1 cells; endogenous in cells; host or cells: BC3H1 cells
T2 sequence (P04756 21-457): as the sequence (P04756 21-457) above
T2 sequence (P09690 24-501): as the sequence (P09690 24-501) above
T2 sequence (P04760 23-519): as the sequence (P04760 23-519) above
T2 sequence (P02716 25-520): as the sequence (P02716 25-520) above
Procedure: Experiments were conducted at ˜22° C., −60 mV, and pH 7.4. The currents were induced by application of 100-μM carbamoylcholine only (lighter rising and falling line) or by a 2-second preincubation of the cells with 1-μM aptamer B55 followed by coapplication of the aptamer (at the same concentration used in preincubation) with 100-μM carbamoylcholine for 6 s (darker rising and falling line). The upper traces parallel to the abscissa represent the current amplitudes corrected for receptor desensitization that occurs during the rising phase. […] AO is the maximum current amplitude in the presence of 100-μM carbamoylcholine, and AI the maximum current amplitude in the presence of the same concentration of carbamoylcholine and different concentrations of aptamer B55. The whole-cell current was corrected for receptor desensitization. Each data point is the average of 2-4 measurements with at least two cells.
Carbamoylcholine-induced currents were recorded using the whole-cell configuration at room temperature (22-23° C.), pH 7.4, and a transmembrane voltage of −60 mV. The currents were amplified using an Axopatch 200B amplifier (Axon Instruments, Union City, Calif.) and filtered at 1 kHz (using a four-pole low-pass Bessel filter incorporated in the Axopatch 200B amplifier). […]

[9] = molecular target: T1, Aβ(1-40) peptide; settings: Ylera et al. 2002; read-out: Kd(amyloid) for the Aβ(1-40) peptide; cited from earlier work

COC(=O)C1C(O)CC2CCC1N2C (stereo not shown)
concentration with no effect on cardiovascular functions in vitro [1]: up to 100 μM | dose with no effect on cardiovascular functions in vivo, i.v. infusion [2]: up to 1.5 mg/kg/min | dose with no effect on cardiovascular functions in vivo, i.v. bolus [3]: up to 10 mg/kg | brain tissue concentration corresponding to the lowest toxic daily dose [4]: 478.43±57.89 | effect on Aβ(1-40) peptide aggregation ([5]; 50-μM Aβ(1-40), 37° C., 2 days): inhibit aggregation of Aβ(1-40) in a dose-dependent manner; also recorded: dose-dependent inhibition | concentration required to abolish the aggregation of Aβ(1-40) in the brain (estimated therapeutic concentration) ([5]; order-of-magnitude approximation calculated from FIG. 4A and CSF Aβ(1-40) concentration): ~40 ng/g

C[C@]12N[C@H](Cc3ccccc31)c1ccccc12 [MK-801, dizocilpine, reference compound]
effect on Aβ(1-40) peptide aggregation ([5]; 50-μM Aβ(1-40), 37° C., 2 days): inhibit aggregation of Aβ(1-40) in a dose-dependent manner; also recorded: dose-dependent inhibition

c1ccc(C2(N3CCCCC3)CCCCC2)cc1 [PCP, phencyclidine, reference compound]
effect on Aβ(1-40) peptide aggregation at 1 mM ([5]; 1-mM PCP, 50-μM Aβ(1-40), 37° C., 2 days): abrogates Aβ aggregation; also recorded: abolished amyloid aggregation

COC(=O)C1=CC(=O)C2CC(S(=O)(=O)c3ccccc3)C1N2C (stereo not shown) [RCS-III-140A]
effect on Aβ(1-40) peptide aggregation ([5]; 50-μM Aβ(1-40), 37° C., 2 days): inhibit aggregation

CN1C2CC(S(=O)(=O)c3ccccc3)C1C(C(=O)[O-])=CC2=O.[Li+] (stereo not shown) [RCS-III-143]
effect on Aβ(1-40) peptide aggregation ([5]; 50-μM Aβ(1-40), 37° C., 2 days): inhibit aggregation

COC(=O)C1=C(c2ccccc2)C(=O)C2CC(S(=O)(=O)c3ccccc3)C1N2C (stereo not shown) [RCS-III-202A]
effect on Aβ(1-40) peptide aggregation ([5]; 50-μM Aβ(1-40), 37° C., 2 days): inhibit aggregation

CN1C2CC(S(=O)(=O)c3ccccc3)C1C(C(=O)[O-])=C(c1ccccc1)C2=O.[Li+] (stereo not shown) [RCS-III-218]
effect on Aβ(1-40) peptide aggregation ([5]; 50-μM Aβ(1-40), 37° C., 2 days): inhibit aggregation

CN1C2CCC1C(C(=O)O)C(c1ccc(Cl)cc1)C2 (stereo not shown) [RTI-4229-70]
effect on Aβ(1-40) peptide aggregation ([5]; 50-μM Aβ(1-40), 37° C., 2 days): dose-dependent inhibition | effect on Aβ(1-40) peptide aggregation ([5]; 50-μM Aβ(1-40), 37° C., 2 days, listed as RTI 4220-70): inhibit aggregation of Aβ(1-40) in a dose-dependent manner

COC(=O)C1C(OC(=O)c2ccccc2)CC2CCC1N2C (stereo not shown) [cocaine]
binding of cocaine to the Aβ(1-40) peptide [6]: binds; also recorded: direct binding | effect on Aβ(1-40) peptide aggregation ([5]; 50-μM Aβ(1-40), 37° C., 2 days): dose-dependent inhibition

CN1C2CCC1C(C(=O)O)C(O)C2 (stereo not shown) [ecgonine]
effect on Aβ(1-40) peptide aggregation ([5]; 50-μM Aβ(1-40), 37° C., 2 days): inhibit aggregation of Aβ(1-40) in a dose-dependent manner; also recorded: dose-dependent inhibition

COC(=O)C1C(OC(C)=O)CC2CCC1N2C (stereo not shown) [reference compound]
alleviation of cocaine inhibition of the nicotinic acetylcholine receptor [7]: does not alleviate cocaine inhibition | effect on Aβ(1-40) peptide aggregation ([5]; 50-μM Aβ(1-40), 37° C., 2 days): does not inhibit aggregation; also recorded: dose-dependent acceleration

UUCACCG ((i.e., UUCACCG); as printed in the source, key not given here)
effect on Aβ(1-40) peptide aggregation at 500 μM ([5]; 500-μM oligonucleotide, 50-μM Aβ(1-40), 37° C., 2 days): abolished amyloid aggregation

B1: 5′-UUUACCGUAAGGCCUGUCUUCGUUUGACAGCGGCUUGUUGACCCUCACACUUUGUACCUGCUGCCAA-3′ (nucleic acid)
chain: UUUACCGUAAGGCCUGUCUUCGUUUGACAGCGGCUUGUUGACCCUCACACUUUGUACCUGCUGCCAA
modifications: chemistry not given here
inhibition of carbamoylcholine-induced currents from the nicotinic acetylcholine receptor [8]: inhibited carbamoylcholine-induced currents from the nicotinic acetylcholine receptor in a dose-dependent manner; also recorded: inhibition | Kd [9]: 29 nM
